# In patent US4643990A, “N-acyl peptide, processes for their preparation and pharmaceutical compositions thereof” (Fujisawa Pharmaceutical Co., Ltd., priority 1982, dated 1987):
# What was measured:
# [1] = tested on: blood clot from diluted fresh rabbit blood (urokinase, bovine thrombin); experiment: Fibrinolytic activity (modified diluted whole blood clot lysis time method); type: biochemical; conditions: test compound 300 μg/ml; time for complete lysis of diluted rabbit blood clot with urokinase, 37° C.
# Description: The enhancement of the fibrinolytic activity of the test compounds was measured according to the modified diluted whole blood clot lysis time method described in
# G. R. Fearnley, G. V. Balmforth, E. Fearnley: Clin. Sci. 16, 645-650 (1957) I. S. Chohan et al: Thrombos. Diathes. Haemorrh. 33, 226 (1975) and I. M. Nilsson et al: Handbook of Experimental Pharmacology 46, 110.
# Fresh rabbit blood was diluted 20 times with 1/15M phosphate buffer (pH 7.4). A mixture of 400 μl of the diluted blood solution and 50 μl of a test compound (300 μg/ml) was incubated at 37° C. for 30 minutes. To the mixture were added 50 μl of urokinase solution (100 IU/ml) and 50 μl of bovine thrombin (100 N.I.H. u/ml). The clot produced in tubes was incubated at 37° C. for various periods of time. At the end of each incubation interval (15 minutes interval), 2.5 ml of distilled water was added to lyse erythrocytes released from clotted blood and absorbance (OD541) of the supernatant separated by centrifugation (3,000 rpm for 10 minutes) from the reaction mixture was measured. The fibrinolytic activity of the test compound was determined by the time in minutes needed for the complete lysis of the blood clot.
# In the absence of a test compound, it took more than 2 hours to lyse blood clot in the above condition. However, blood clot was lysed in the presence of test compounds after 15 minutes (symbol: ++) and 45 minutes (symbol: +) incubation, respectively. Samples which were incapable of lysing blood clot within 1 hour incubation were expressed as symbol (-).
# [2] = tested on: complement serum (guinea pig complement); experiment: Anticomplementary activity (inhibition of complement hemolysis of sensitized erythrocytes); type: biochemical; conditions: concentration inhibiting hemolysis of sensitized erythrocytes by 50%, 37° C., OD541
# Description: The anticomplementary activity of the test compound was measured according to the test method as described in Experimental Immunochemistry, edited by E. A. Kabat and M. M. Mayer, 2nd ed., Springfield, III: C. C. Thomas (1961) pages 133-240.
# A mixture of 1 ml of a 5-fold diluted solution of a Veronal buffer solution containing 1.5×10^-4 M Ca^2+ and 5×10^-4 M Mg^2+ and isotonic gelatin, 1.5 ml of complement serum (guinea pig complement) diluted 400 times with a physiological saline solution and 0.05 ml of a solution of a test compound (in this case, a test compound was dissolved in a physiological saline solution) was incubated at 37° C. for 30 minutes. To the said mixture there was added 0.4 ml of sensitized erythrocytes suspension containing 5×10^8 cells/ml and said mixture was incubated at 37° C. further for 60 minutes. After the incubation, the mixture was centrifuged in 3,000 rpm at 4° C. for 10 minutes.
# The results are expressed in Table 1 as the concentration of each drugs inhibiting the hemolysis activity by 50% (IC50).
SMILES,Fibrinolytic activity [1],Anticomplementary activity (IC50) [2]
"CCCCCCCCC=CCCCCCCCC(=O)OC(CCCCCCCC=CCCCCCCCC)CC(=O)N[C@H](C(=O)N[C@@H](CCC(=O)O)C(=O)O)C(C)C (stereo partly drawn) [Example 7, N-[N-[3-(9-octadecenoyloxy)-11-eicosenoyl]-L-valyl]-L-glutamic acid]",+ (45 minutes (symbol: +) incubation),3.4 mg/L
"Br.Br.CCCCCCCCCCCCCCCC(=O)OC(CCCCCCCCCCCCCCC)CC(=O)N[C@@H](CCCCN)C(=O)N[C@@H](CCCCN)C(=O)O (stereo partly drawn) [Example 36, N-[N-(3-hexadecanoyloxyoctadecanoyl)-L-lysyl]-L-lysine dihydrogen bromide]",,9.5 mg/L
"CCCCCCCCCCCCCCCC(=O)OC(CCCCCCCCCCCCCCC)CC(=O)N[C@H](C(=O)N[C@@H](CCC(=O)O)C(=O)O)C(C)C (stereo partly drawn) [Example 3, N-[N-(3-hexadecanoyloxyoctadecanoyl)-L-valyl]-L-glutamic acid]",++ (blood clot was lysed in the presence of test compounds after 15 minutes (symbol: ++)),1.89 mg/L
"CCCCCCCCCCCCCCCC(=O)OC(CCCCCCCCCCCCCCC)CC(=O)NCCC(=O)N[C@@H](CC(=O)O)C(=O)O (stereo partly drawn) [Example 18, N-[N-(3-hexadecanoyloxyoctadecanoyl)-β-alanyl]-L-aspartic acid]",,0.34 mg/L
"CCCCCCCCCCCCCCCC(=O)OC(CCCCCCCCCCCCCC)C(=O)N[C@H](C(=O)N[C@@H](CCC(=O)O)C(=O)O)C(C)C (stereo partly drawn) [Example 6, N-[N-(2-hexadecanoyloxyhexadecanoyl)-L-valyl]-L-glutamic acid]",+ (45 minutes (symbol: +) incubation),0.49 mg/L
"CCCCCCCCCCCCCCCC(=O)OC(CCCCCCCCCCCCCCC)CC(=O)N[C@@H](CCC(=O)O)C(=O)N[C@@H](CCC(=O)O)C(=O)O (stereo partly drawn) [19 (2), N-[N-(3-hexadecanoyloxyoctadecanoyl)-L-glutamyl]-L-glutamic acid]",,5.28 mg/L
"CCCCCCCCCCCCCCCC(=O)OC(CCCCCCCCCCCCCCC)CC(=O)N[C@H](C(=O)N[C@@H](CCC(=O)OC)C(=O)OC)[C@@H](C)O (stereo partly drawn) [Example 43, dimethyl N-[N-(3-hexadecanoyloxyoctadecanoyl)-L-threonyl]-L-glutamate]",,30 mg/L
"CCCCCCCCCCCCCCCC(=O)OC(CCCCCCCCCCCCCCC)CC(=O)N[C@@H](CCC(=O)O)C(=O)N[C@H](C(=O)O)[C@@H](C)O (stereo partly drawn) [Example 39, N-[N-(3-hexadecanoyloxyoctadecanoyl)-L-glutamyl]-L-threonine]",,1.67 mg/L
"CCCCCCCCCCCCCCCC(=O)OC(CCCCCCCCCCCCCCC)CC(=O)N[C@@H](CCCCN)C(=O)N[C@@H](CCC(=O)O)C(=O)O (stereo partly drawn) [Example 21, N-[N-(3-hexadecanoyloxyoctadecanoyl)-L-lysyl]-L-glutamic acid]",+ (45 minutes (symbol: +) incubation),
"CCCCCCCCCCCCCCCC(=O)OC(CCCCCCCCCCCCCCC)CC(=O)N[C@H](C(=O)NCCS(=O)(=O)O)C(C)C (stereo partly drawn) [Example 37, N-[N-(3-hexadecanoyloxyoctadecanoyl)-L-valyl]taurine]",+ (45 minutes (symbol: +) incubation),0.13 mg/L
"CCCCCCCCCCCCCCCC(=O)OC(CCCCCCCCCCCCCCC)CC(=O)N[C@H](C(=O)N[C@@H](CCC(=O)O)C(=O)O)[C@@H](C)O (stereo partly drawn) [Example 8 (2), N-[N-(3-hexadecanoyloxyoctadecanoyl)-L-threonyl]-L-glutamic acid]",++ (blood clot was lysed in the presence of test compounds after 15 minutes (symbol: ++)),0.67 mg/L
"CCCCCCCCCCCCCCCC(=O)OC(CCCCCCCCCCCCCCC)CC(=O)NCCC(=O)N[C@H](C(=O)N[C@@H](CCC(=O)O)C(=O)O)[C@@H](C)O (stereo partly drawn) [Example 10, N-[N-[N-(3-hexadecanoyloxyoctadecanoyl)-β-alanyl]-L-threonyl]-L-glutamic acid]",+ (45 minutes (symbol: +) incubation),1.00 mg/L
"CCCCCCCCCCCCCCCC(=O)OC(CCCCCCCCCCCCCCC)CC(=O)N[C@H](C(=O)N[C@H](C(=O)O)[C@@H](C)O)[C@@H](C)O (stereo partly drawn) [Example 42, N-[N-(3-hexadecanoyloxyoctadecanoyl)-L-threonyl]-L-threonine]",++ (blood clot was lysed in the presence of test compounds after 15 minutes (symbol: ++)),0.06 mg/L
"CCCCCCCCCCCCCCCC(=O)OC(CCCCCCCCCCCCCCC)CC(=O)NCCCCC(=O)N[C@@H](CCC(=O)O)C(=O)O (stereo partly drawn) [Example 14, N-[N-(3-hexadecanoyloxyoctadecanoyl)-5-aminopentanoyl]-L-glutamic acid]",,0.52 mg/L
